In the assay the target is T1, human recombinant HDAC6 (Homo sapiens, UniProt Q9UBN7).
T1 construct: purchased Calbiochem 382180
T1 sequence (Q9UBN7 1-1215): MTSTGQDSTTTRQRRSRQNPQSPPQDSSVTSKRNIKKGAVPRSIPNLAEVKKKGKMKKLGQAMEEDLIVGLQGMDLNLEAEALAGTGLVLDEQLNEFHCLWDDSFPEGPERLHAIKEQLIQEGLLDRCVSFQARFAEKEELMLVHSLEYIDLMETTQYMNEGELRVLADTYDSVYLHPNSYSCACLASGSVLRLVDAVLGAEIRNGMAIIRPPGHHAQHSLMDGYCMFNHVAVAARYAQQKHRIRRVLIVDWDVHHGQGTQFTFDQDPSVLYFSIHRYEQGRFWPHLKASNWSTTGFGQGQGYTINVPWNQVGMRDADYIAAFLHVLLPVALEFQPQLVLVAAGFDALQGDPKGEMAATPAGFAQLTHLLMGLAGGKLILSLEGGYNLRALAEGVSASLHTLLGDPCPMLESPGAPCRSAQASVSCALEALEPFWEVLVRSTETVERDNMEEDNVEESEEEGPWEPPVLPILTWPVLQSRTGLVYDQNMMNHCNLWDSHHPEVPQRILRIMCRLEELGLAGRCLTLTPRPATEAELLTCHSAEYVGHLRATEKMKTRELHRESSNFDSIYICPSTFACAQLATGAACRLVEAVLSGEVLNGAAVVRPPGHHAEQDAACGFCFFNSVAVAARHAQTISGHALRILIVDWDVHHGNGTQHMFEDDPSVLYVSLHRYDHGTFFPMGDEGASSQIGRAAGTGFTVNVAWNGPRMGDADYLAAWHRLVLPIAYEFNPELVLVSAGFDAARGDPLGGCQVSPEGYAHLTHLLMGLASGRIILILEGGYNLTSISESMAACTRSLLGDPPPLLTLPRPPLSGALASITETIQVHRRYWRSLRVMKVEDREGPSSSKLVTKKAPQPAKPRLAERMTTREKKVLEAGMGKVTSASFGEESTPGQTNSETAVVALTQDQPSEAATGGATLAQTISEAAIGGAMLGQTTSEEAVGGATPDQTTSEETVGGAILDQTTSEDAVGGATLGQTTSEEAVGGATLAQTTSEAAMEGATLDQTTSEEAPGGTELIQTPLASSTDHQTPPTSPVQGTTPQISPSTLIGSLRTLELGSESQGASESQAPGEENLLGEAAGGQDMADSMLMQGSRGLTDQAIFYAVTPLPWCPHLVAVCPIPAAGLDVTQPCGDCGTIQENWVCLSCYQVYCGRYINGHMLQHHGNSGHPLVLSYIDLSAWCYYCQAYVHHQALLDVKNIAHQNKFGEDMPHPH
As to the kind of experiment: HDAC6 enzyme activity inhibition assay (HDAC Fluorimetric Drug Discovery Kit). It counts as biochemical. The conditions noted are these: for HDAC6 selectivity (fold): HDAC6 over HDAC1; for IC50: human recombinant HDAC6, same protocol as HDAC1, read-out: HDAC6. The procedure: In order to examine the HDAC6 selectivity of the compounds of formula I of the present invention by HDAC1 and HDAC6 enzymatic activity inhibition assays, an experiment was performed using a conventional substance as a control.
HDAC enzyme activity was measured using a HDAC Fluorimetric Drug Discovery Kit (BML-AK511, 516, Enzo Life Science). For the HDAC1 enzyme activity test, human recombinant HDAC1 (BML-SE456) was used as an enzyme source, and Fluor de Lys®-“SIRT1 (BNL-KI177) was used as a substrate. A 5-fold dilution of the compound was seeded into a 96-well plate, and then 0.3 μg of the enzyme and 10 μM of the substrate were added to each well of the plate and allowed to react at 30° C. for 60 minutes. Then, Fluor de Lys®-Developer II (BML-KI176) was added thereto and allowed to react for 30 minutes, after which the fluorescence value (Ex 360, Em 460) was measured using a multi-plate reader (Flexstation 3, Molecular Device). The HDAC6 enzyme was tested using human recombinant HDAC6 (382180) (Calbiochem) according to the same protocol as the HDAC1 enzyme activity test method. Based on the resulting values, each IC5, value was calculated using GraphPad Prism4.0 program.

SMILES strings stand for the structures.

Consider `CCNC(=O)N(Cc1ccc(-c2nnc(C(F)(F)F)o2)cc1)c1ccccc1` [Compound 21353, 3-Ethyl-1-phenyl-1-(4-(5-(trifluoromethyl)-1,3,4-oxadiazol-2-yl)benzyl)urea], for which the “HDAC6 selectivity (fold)” value was 14 fold and the IC50 is 720 nM.
As to `CCCNC(=O)N(Cc1ccc(-c2nnc(C(F)(F)F)o2)cc1)c1ccccc1` [Compound 21354, 1-Phenyl-3-propyl-1-(4-(5-(trifluoromethyl)-1,3,4-oxadiazol-2-yl)benzyl)urea], the “HDAC6 selectivity (fold)” value is recorded as 26 fold and the IC50 is 380 nM.
Regarding `O=C(N1CCOCC1)N(Cc1ccc(Cc2nnc(C(F)(F)F)o2)cc1)c1ccccc1` [Compound 21355, N-phenyl-N-(4-((5-(trifluoromethyl)-1,3,4-oxadiazol-2-yl)methyl)benzyl)morpholine-4-carboxamide], the “HDAC6 selectivity (fold)” value was determined as 1 fold and the IC50 turned out to be 6910 nM.
For `O=C(NCC1CCOCC1)N(Cc1ccc(-c2nnc(C(F)(F)F)o2)cc1)c1ccccc1` [Compound 21357, 1-Phenyl-3-((tetrahydro-2H-pyran-4-yl)methyl)-1-(4-(5-(trifluoromethyl)-1,3,4-oxadiazol-2-yl)benzyl)urea], the “HDAC6 selectivity (fold)” value came to 21 fold and the IC50 amounted to 472 nM.
Regarding `O=C(N1CCN(c2ccccc2)CC1)N(Cc1ccc(-c2nnc(C(F)(F)F)o2)cc1)c1ccccc1` [Compound 21358, N,4-diphenyl-N-(4-(5-(trifluoromethyl)-1,3,4-oxadiazol-2-yl)benzyl)piperazine-1-carboxamide], the “HDAC6 selectivity (fold)” value came out at 10 fold and the IC50 is 1050 nM.
For `O=C(N1CC=C(c2ccccc2)CC1)N(Cc1ccc(-c2nnc(C(F)(F)F)o2)cc1)c1ccccc1` [Compound 21359, N,4-diphenyl-N-(4-(5-(trifluoromethyl)-1,3,4-oxadiazol-2-yl)benzyl)-3,6-dihydropyridine-1(2H)-carboxamide], in that order: 4 fold and 2280 nM.
`O=C(N1CCS(=O)(=O)CC1)N(Cc1ccc(-c2nnc(C(F)F)o2)cc1)c1ccccc1` [Compound 21360, N-(4-(5-(difluoromethyl)-1,3,4-oxadiazol-2-yl)benzyl)-N-phenylthiomorpholine-4-carboxamide 1,1-dioxide]: the “HDAC6 selectivity (fold)” value worked out at 282 fold and the IC50 is 35.4 nM.
Consider `O=C(N1CCS(=O)(=O)CC1)N(Cc1ccc(-c2nnc(C(F)(F)F)o2)cc1)c1ccccc1` [Compound 21361, N-phenyl-N-(4-(5-(trifluoromethyl)-1,3,4-oxadiazol-2-yl)benzyl)thiomorpholine-4-carboxamide 1,1-dioxide], for which the “HDAC6 selectivity (fold)” value was 147 fold and the IC50 was 67.8 nM.
For `O=C(N1CCNCC1)N(Cc1ccc(-c2nnc(C(F)(F)F)o2)cc1)c1ccccc1` [Compound 21362, N-phenyl-N-(4-(5-(trifluoromethyl)-1,3,4-oxadiazol-2-yl)benzyl)piperazine-1-carboxamide], in that order: 180 fold and 55.7 nM.
For `CS(=O)(=O)N1CCN(C(=O)N(Cc2ccc(-c3nnc(C(F)(F)F)o3)cc2)c2ccccc2)CC1` [Compound 21363, 4-(Methylsulfonyl)-N-phenyl-N-(4-(5-(trifluoromethyl)-1,3,4-oxadiazol-2-yl)benzyl)piperazine-1-carboxamide], in that order: 118 fold and 84.8 nM.
Consider `CC(=O)N1CCN(C(=O)N(Cc2ccc(-c3nnc(C(F)(F)F)o3)cc2)c2ccccc2)CC1` [Compound 21364, 4-Acetyl-N-phenyl-N-(4-(5-(trifluoromethyl)-1,3,4-oxadiazol-2-yl)benzyl)piperazine-1-carboxamide], for which the “HDAC6 selectivity (fold)” value is on record as 108 fold and the IC50 was found to be 92.4 nM.
`CC(C)C(=O)N1CCN(C(=O)N(Cc2ccc(-c3nnc(C(F)(F)F)o3)cc2)c2ccccc2)CC1` [Compound 21365, 4-Isobutyryl-N-phenyl-N-(4-(5-(trifluoromethyl)-1,3,4-oxadiazol-2-yl)benzyl)piperazine-1-carboxamide]: the “HDAC6 selectivity (fold)” value is listed as 69 fold and the IC50 was 145 nM.
For `CCC(=O)N1CCN(C(=O)N(Cc2ccc(-c3nnc(C(F)(F)F)o3)cc2)c2ccccc2)CC1` [Compound 21366, N-phenyl-4-propionyl-N-(4-(5-(trifluoromethyl)-1,3,4-oxadiazol-2-yl)benzyl)piperazine-1-carboxamide], in that order: 79 fold and 126 nM.
In the case of `O=C(N1CCN(C(=O)C(F)(F)F)CC1)N(Cc1ccc(-c2nnc(C(F)(F)F)o2)cc1)c1ccccc1` [Compound 21367, N-phenyl-4-(2,2,2-trifluoroacetyl)-N-(4-(5-(trifluoromethyl)-1,3,4-oxadiazol-2-yl)benzyl)piperazine-1-carboxamide], the “HDAC6 selectivity (fold)” value is 43 fold and the IC50 is 234 nM.
For `O=C(NCc1ccccc1)N(Cc1ccc(-c2nnc(C(F)(F)F)o2)cc1)c1ccccc1` [Compound 21368, 3-Benzyl-1-phenyl-1-(4-(5-(trifluoromethyl)-1,3,4-oxadiazol-2-yl)benzyl)urea], in that order: 24 fold and 420 nM.
For `O=C(N1CCS(=O)(=O)CC1)N(Cc1ccc(-c2nnc(C(F)(F)F)o2)cc1F)c1ccccc1` [Compound 21369, N-(2-fluoro-4-(5-(trifluoromethyl)-1,3,4-oxadiazol-2-yl)benzyl)-N-phenylthiomorpholine-4-carboxamide 1,1-dioxide], in that order: 179 fold and 56 nM.
For `O=C(N1CCS(=O)(=O)CC1)N(Cc1ccc(-c2nnc(C(F)F)o2)cc1F)c1ccccc1` [Compound 21370, N-(4-(5-(difluoromethyl)-1,3,4-oxadiazol-2-yl)-2-fluorobenzyl)-N-phenylthiomorpholine-4-carboxamide 1,1-dioxide], in that order: 400 fold and 25 nM.
On to `O=C(N1CCS(=O)(=O)CC1)N(Cc1ccc(-c2nnc(C(F)(F)F)o2)cc1)C1CCCC1` [Compound 21371, N-cyclopentyl-N-(4-(5-(trifluoromethyl)-1,3,4-oxadiazol-2-yl)benzyl)thiomorpholine-4-carboxamide 1,1-dioxide], for which the “HDAC6 selectivity (fold)” value turned out to be 9 fold and the IC50 stood at 1090 nM.
For `O=C(N1CCS(=O)(=O)CC1)N(Cc1ccc(-c2nnc(C(F)(F)F)o2)cn1)c1ccccc1` [Compound 21372, N-phenyl-N-((5-(5-(trifluoromethyl)-1,3,4-oxadiazol-2-yl)pyridin-2-yl)methyl)thiomorpholine-4-carboxamide 1,1-dioxide], in that order: 132 fold and 76 nM.
For `O=C(N1CCS(=O)(=O)CC1)N(Cc1ccc(-c2nnc(C(F)F)o2)cn1)c1ccccc1` [Compound 21373, N-((5-(5-(difluoromethyl)-1,3,4-oxadiazol-2-yl)pyridin-2-yl)methyl)-N-phenylthiomorpholine-4-carboxamide 1,1-dioxide], in that order: 500 fold and 20 nM.
For `O=C(N1CCS(=O)(=O)CC1)N(Cc1ccccc1)Cc1ccc(-c2nnc(C(F)(F)F)o2)cc1` [Compound 21374, N-benzyl-N-(4-(5-(trifluoromethyl)-1,3,4-oxadiazol-2-yl)benzyl)thiomorpholine-4-carboxamide 1,1-dioxide], in that order: 10 fold and 1010 nM.
